The values below come from paper PMC7948948 (The Journal of Biological Chemistry, 2021).

Values after ≈ are worked out from the molar mass of the structure shown. Values joined by “and” are separate entries in the source; they are usually repeats but may differ in a detail not shown here. Equal entries are not always repeated. “Also recorded” adds a separate entry of the source. Where two headings read alike, the source gives them in different places.

Data set [1] deals with T1, Mtb PheRS (Mycobacterium tuberculosis, UniProt P9WFU3). The note with it: for Mode of inhibition with regard to Phe / Mode of inhibition with regard to ATP: Lineweaver-Burk plot; for Mode of inhibition with regard to ATP: no sulfate added.
Data set [2] addresses T1, Mtb PheRS. Particulars: for Km: read-out: Km, aminoacylation assay.
The target in data set [3] is T1, Mtb PheRS. The data set is described as follows: ATP consumption assay (Kinase-Glo), Mtb PheRS. The data set is classed as biochemical. On the technique in general: Kinase-Glo measures the ATP left after a reaction by luminescence.
Data set [4] addresses T1, Mtb PheRS. The data set is described as follows: biochemical. Particulars: read-out: IC50, AMP Glo, Mtb PheRS.
Data set [5] addresses T1, Mtb PheRS. The data set is described as follows: biochemical. Particulars: read-out: IC50, Malachite Green, Mtb PheRS.
In data set [6] the target is T2, hFARS1 (Homo sapiens, UniProt Q9Y285).
T2 sequence (Q9Y285 1-508): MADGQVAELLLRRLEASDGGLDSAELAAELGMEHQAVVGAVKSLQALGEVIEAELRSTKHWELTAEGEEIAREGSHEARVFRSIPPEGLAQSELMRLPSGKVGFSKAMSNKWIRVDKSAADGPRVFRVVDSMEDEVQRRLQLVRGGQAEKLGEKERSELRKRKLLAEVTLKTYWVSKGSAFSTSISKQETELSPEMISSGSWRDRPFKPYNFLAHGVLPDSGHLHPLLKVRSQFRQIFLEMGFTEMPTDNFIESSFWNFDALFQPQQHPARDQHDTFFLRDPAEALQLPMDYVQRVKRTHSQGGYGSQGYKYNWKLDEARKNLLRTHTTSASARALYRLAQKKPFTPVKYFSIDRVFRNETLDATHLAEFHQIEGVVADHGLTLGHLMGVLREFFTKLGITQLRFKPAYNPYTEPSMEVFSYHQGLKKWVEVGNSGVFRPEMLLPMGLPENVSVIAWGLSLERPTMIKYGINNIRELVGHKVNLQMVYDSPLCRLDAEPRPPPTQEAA
T2 sequence (Q9NSD9 1-589 partner): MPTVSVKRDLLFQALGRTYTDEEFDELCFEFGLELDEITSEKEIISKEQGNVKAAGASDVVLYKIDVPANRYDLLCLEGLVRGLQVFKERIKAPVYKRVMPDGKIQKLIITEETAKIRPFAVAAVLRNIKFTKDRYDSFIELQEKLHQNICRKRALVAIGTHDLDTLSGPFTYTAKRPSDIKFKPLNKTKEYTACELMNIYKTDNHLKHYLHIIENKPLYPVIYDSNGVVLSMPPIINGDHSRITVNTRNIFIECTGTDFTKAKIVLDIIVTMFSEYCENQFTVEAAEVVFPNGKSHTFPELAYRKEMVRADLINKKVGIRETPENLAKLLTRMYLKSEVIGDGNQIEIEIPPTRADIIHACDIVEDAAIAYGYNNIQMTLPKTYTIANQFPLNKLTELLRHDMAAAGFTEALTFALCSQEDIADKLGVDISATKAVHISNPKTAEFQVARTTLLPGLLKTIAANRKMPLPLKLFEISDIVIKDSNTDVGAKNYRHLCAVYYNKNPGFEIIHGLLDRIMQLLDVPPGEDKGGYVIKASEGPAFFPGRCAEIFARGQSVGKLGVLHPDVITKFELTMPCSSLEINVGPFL
The data set is described as follows: biochemical. The note with it: for IC50: 50 nM enzyme, 2 μM ATP, 20 μM L-Phe, 1 mg/ml yeast total tRNA, 1 h, read-out: IC50, Kinase Glo, hFARS1.

Data set [7] deals with T3, hFARS2 (Homo sapiens, UniProt O95363).
T3 sequence (O95363 38-451 limits assumed): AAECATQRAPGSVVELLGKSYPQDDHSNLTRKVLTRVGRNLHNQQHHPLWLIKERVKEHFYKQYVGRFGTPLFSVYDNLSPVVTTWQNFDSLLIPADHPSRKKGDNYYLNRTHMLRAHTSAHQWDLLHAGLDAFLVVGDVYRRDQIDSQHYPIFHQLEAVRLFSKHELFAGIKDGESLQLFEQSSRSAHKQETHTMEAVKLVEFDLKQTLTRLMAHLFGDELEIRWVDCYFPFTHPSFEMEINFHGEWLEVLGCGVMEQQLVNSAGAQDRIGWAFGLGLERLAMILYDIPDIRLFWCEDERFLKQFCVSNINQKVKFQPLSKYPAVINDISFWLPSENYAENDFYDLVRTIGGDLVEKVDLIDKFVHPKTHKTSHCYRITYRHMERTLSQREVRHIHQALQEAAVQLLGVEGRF
The data set is described as follows: biochemical. The note with it: for IC50: E. coli total tRNA 0.5 mg/ml, 1 h, read-out: IC50, Kinase Glo, hFARS2.

Data set [8] concerns Mtb H37Rv. The data set is described as follows: MIC by microplate alamarBlue assay. The data set is classed as cell-based, Mycobacterium tuberculosis. The note with it: for MIC: Mycobacterium tuberculosis, H37RV, n = 3, read-out: MIC against Mtb H37Rv. (In general: Alamar Blue is a resazurin reagent that responds to reducing activity.)
Data set [9] concerns the target T1, Mtb PheRS. In words: biochemical.
For data set [10], the system named is WT H37Rv. The data set is described as follows: microbe, parasite or virus in culture. Particulars: Mycobacterium tuberculosis, 264 h, absorbance at 580 nm, 11 days, Gompertz fit. The data set is classed as cell-based.
The nature of data set [11]: in vitro. The data set is classed as cell-based. The note with it: human. Here is the method:
(§1) HEK293T, Vero E6, and HepG2 cells were cultured in Dulbecco's modified Eagle's medium plus 10% fetal bovine serum and 1% penicillin/streptomycin at 37 °C with 5% CO2. Plates of 96 wells were plated with 100 μl 1 × 10^5 cells/ml per well and incubated for 24 h before adding compound in serial dilutions. After another 48 h, 40 μl reagents of CellTiter-Glo cell viability assay (Promega) was added, and the plates were shaken at 400 rpm for 10 min in the dark. Luminescence was recorded with plate reader. The data were analyzed with GraphPad Prism 9.
(§2) HepG2 (A and B) is an immortal cell line derived from human liver cells. HEK-293T (C and
(§3) D) is a human embryonic kidney 293 cell line. Vero E6 is a cell line derived from African
(§4) green monkey kidney epithelial cells. […]

Data set [12] is described as follows: in vitro. Particulars: human. The data set is classed as cell-based, human. As for the experimental part: as §1, §2, §3, §4
The test system of data set [13] is HEK-293T. In words: in vitro. The note with it: 48 h. The data set is classed as cell-based, human. Here is the method: as §1, §2, §3, §4
A short description of data set [14]: Cytotoxicity, CellTiter-Glo, Vero E6. Particulars: African green monkey, Vero E6 cells. The data set is classed as cell-based. Here is the method:
as §1, §2, §3, §4
A general note: Cellular ATP, detected with luciferase, serves as a proxy for viable cell number.

Data set [15] in a line: in vitro. The data set is classed as cell-based. Here is the method:
as §1

Data set [16] deals with luciferase. The data set is described as follows: Counter-screen of Kinase-Glo coupled reaction, Mtb PheRS omitted. The data set is classed as biochemical. The note with it: concentrations up to 20 μM.
Data set [17] deals with PPase, PNPase. The data set is described as follows: Counter-screen of PPi production coupled reaction, Mtb PheRS omitted. The data set is classed as biochemical. Particulars: concentrations up to 20 μM.
Data set [18] deals with HepG2. In words: in vitro. The data set is classed as cell-based. The note with it: human, 48 h. As for the experimental part:
as §1, §2, §3, §4

The target in data set [19] is human FAAH. The note with it: cited from earlier work.
Data set [20] deals with N[C@@H](Cc1ccccc1)C(=O)O. In words: purified protein, by the assay type.

Usually Km stands for the substrate concentration at which the rate is half of its maximum. As usually defined, the IC50 is the midpoint of a concentration-inhibition curve. Broadly, the Ki is a measure of affinity in units of concentration, obtained from inhibition or displacement. A word on the CC50: it is the concentration at which the toxic effect on the cells reaches its halfway point. A word on the kcat: it is the maximal rate divided by the concentration of active sites. For orientation: kcat/Km means the second-order rate constant that governs catalysis at low substrate concentration.

T1 sequence (P9WFU3 whole entry): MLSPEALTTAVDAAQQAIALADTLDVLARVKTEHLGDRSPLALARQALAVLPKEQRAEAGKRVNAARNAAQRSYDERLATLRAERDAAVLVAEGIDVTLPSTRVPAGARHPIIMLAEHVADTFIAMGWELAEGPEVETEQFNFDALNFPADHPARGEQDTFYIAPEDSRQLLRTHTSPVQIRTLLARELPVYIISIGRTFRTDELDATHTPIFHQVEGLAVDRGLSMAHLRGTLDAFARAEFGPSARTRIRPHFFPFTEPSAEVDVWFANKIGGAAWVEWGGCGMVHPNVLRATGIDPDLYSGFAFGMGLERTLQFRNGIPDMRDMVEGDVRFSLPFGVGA
T1 sequence (P9WFU1 whole entry, further chain): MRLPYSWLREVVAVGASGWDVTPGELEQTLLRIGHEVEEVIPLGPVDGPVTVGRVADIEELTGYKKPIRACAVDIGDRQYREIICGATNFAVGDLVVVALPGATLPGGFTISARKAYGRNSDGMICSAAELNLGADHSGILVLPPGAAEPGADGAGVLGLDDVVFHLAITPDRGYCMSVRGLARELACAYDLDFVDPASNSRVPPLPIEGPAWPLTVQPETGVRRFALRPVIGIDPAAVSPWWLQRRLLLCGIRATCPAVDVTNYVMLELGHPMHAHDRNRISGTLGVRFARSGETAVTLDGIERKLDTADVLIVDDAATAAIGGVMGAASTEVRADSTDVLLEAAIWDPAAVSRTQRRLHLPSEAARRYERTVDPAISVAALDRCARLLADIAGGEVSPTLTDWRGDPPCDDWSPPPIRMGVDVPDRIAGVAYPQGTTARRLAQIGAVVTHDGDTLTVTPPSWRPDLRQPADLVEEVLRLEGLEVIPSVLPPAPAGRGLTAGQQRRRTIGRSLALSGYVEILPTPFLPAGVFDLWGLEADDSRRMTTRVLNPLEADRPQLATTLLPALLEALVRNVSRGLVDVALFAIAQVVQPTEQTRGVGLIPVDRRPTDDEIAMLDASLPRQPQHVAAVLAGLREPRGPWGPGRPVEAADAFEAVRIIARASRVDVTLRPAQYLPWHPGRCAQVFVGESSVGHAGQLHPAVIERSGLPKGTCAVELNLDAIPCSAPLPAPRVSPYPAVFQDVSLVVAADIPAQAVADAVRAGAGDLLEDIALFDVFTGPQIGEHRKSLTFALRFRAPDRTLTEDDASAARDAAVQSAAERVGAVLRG

`Nc1ncnc2c1ncn2[C@@H]1O[C@H](COP(=O)(O)OP(=O)(O)OP(=O)(O)O)[C@@H](O)[C@H]1O` [ATP]: the Km worked out at 162 ± 11.6 µM in data set [1] (read-out: apparent Km, PPi production assay) and 387 ± 279 µM in [2]. Moreover, the “kcat, aminoacylation assay” value in data set [2] (substrate of Mtb PheRS) is 0.405 ± 0.417 s⁻¹.

For `O=C(Nc1cccc(S(=O)(=O)NCCc2c[nH]c3ccccc23)c1)Nc1nccs1` [GDI05-001], the IC50 is 1.72 ± 0.13 µM in [3]; 0.87 ± 0.06 µM in [4]; 0.52 ± 0.06 µM in data set [5]; > 200 µM in data set [6]; 85.4 µM in [7]; 1.34 µM in data set [9]. The MIC in data set [8] is 145 µM (≈ 64 µg/mL). Besides, the “Mode of inhibition with regard to Phe” value in [1] is “Phe competitive inhibitors”. In addition, the “Mode of inhibition with regard to ATP” value in data set [1] is listed as “noncompetitive”. Moreover, in data set [9] (Ki in the Phe-competitive mode), the Ki is 0.2 ± 0.01 µM.

For the compound `O=C(Nc1cccnc1)N1CCC(Cc2cccc(Oc3ccc(C(F)(F)F)cn3)c2)CC1` [PF-3845], the IC50 in data set [3] was 2.65 ± 0.19 µM; in [4] it was 2.49 ± 0.19 µM; in [5] it was 1.95 ± 0.19 µM; in [6], > 200 µM; in data set [7], > 200 µM; in data set [9], 2.4 µM. In addition, the “Inhibition of human cytoplasmic PheRS” value in [6] (concentrations up to 200 μM) is listed as “does not inhibit”. The “Inhibition of human mitochondrial PheRS” value in data set [7] (concentrations up to 200 μM) was “does not inhibit”. Also, the figures for the MIC in data set [8] and in data set [10] were ~24 µM (≈ 11 µg/mL) and 220 µM (≈ 100 µg/mL), respectively. Moreover, in [8] (n = 3), the “MIC against Mtb H37Rv” value is ~23.87 µM (≈ 10.9 µg/mL). The half-maximal cytotoxic concentration (CC50) was 21.7 ± 1.53 µM in [11] (48 h, CellTiter-Glo, read-out: CC50, HepG2); 16.9 ± 1.54 µM in data set [12] (48 h, CellTiter-Glo, read-out: CC50, HEK-293T); 16.9 µM in data set [13] (CellTiter-Glo, read-out: CC50, HEK-293T); 16.9 to 25.8 µM in [15] (human, African green monkey); 16.9 to 21.7 µM in data set [15] (two human cell lines, preliminary result, read-out: CC50 against human cell lines (range)). Moreover, the CC50 at 48 h in [14] was found to be 21.7 µM. In addition, in data set [16], the “Inhibition of luciferase (Kinase-Glo coupled reaction)” value is on record as “did not inhibit”. For the same compound, the “Inhibition of PPase and PNPase (PPi production coupled reaction)” value in data set [17] is on record as “did not inhibit”. Moreover, the “Mode of inhibition with regard to tRNAPhe” value in data set [1] was “uncompetitive inhibitor; also recorded: uncompetitive inhibition mode”. The “Mode of inhibition with regard to ATP in the presence of sulfate” value in data set [1] (5 mM (NH4)2SO4) is listed as “competitive inhibition mode; also recorded: ATP competitive inhibitor”. In addition, in data set [1], the “Mode of inhibition with regard to Phe” value was “Phe competitive inhibitors; also recorded: competitive inhibition mode”. Also, the “Mode of inhibition with regard to ATP” value in data set [1] was “mixed inhibition mode”. Further, the inhibition constant (Ki) in [9] (Ki in the Phe-competitive mode) was 1.7 ± 0.11 µM; in data set [9] (Ki with regard to ATP when SO4 2- was absent, mixed inhibition mode, no sulfate), 1.08 ± 0.245 µM; in data set [9] (Ki with regard to ATP, competitive, with sulfate, 5 mM (NH4)2SO4 in the PheRS enzyme reaction), ~0.73 µM and 0.73 µM.

Regarding `O=C(Nc1cccnn1)N1CCC(=Cc2cccc(Oc3ccc(C(F)(F)F)cn3)c2)CC1` [PF-04457845], the IC50 in [3] was 9.76 ± 0.73 µM; in data set [4], 10.1 ± 1.02 µM; in data set [5], 11.7 ± 1.43 µM; in data set [6] it was > 200 µM; in data set [7], > 200 µM; in [9], 12 µM. The CC50 at 48 h in data set [11] (CC50, HepG2) is 25.8 ± 2.88 µM; in data set [12] (CC50, HEK-293T), 23.6 ± 1.93 µM; in data set [15] (human) it was 23.6 to 25.8 µM. Further, the CC50 is 25.8 µM in data set [18]; 23.6 µM in data set [13] (human); 16.9 to 25.8 µM in [15] (human, African green monkey). In addition, in data set [19], the “kinact/Ki for covalent inhibition of human FAAH” value was 40,300 M^−1s^−1.

For the compound `N[C@@H](Cc1ccccc1)C(=O)O` [Phe, phenylalanine], the Michaelis-Menten constant (Km) in data set [2] came to 68 ± 6.6 µM.

As to (Mycobacterium tuberculosis H37Rv), in data set [20] (pH 7.4), the Km stood at 18.10 ± 2.44 µM.

In the case of “Mtb PheRS (Mycobacterium tuberculosis H37Rv)”, in [20], the Km amounted to 68.0 ± 6.6 µM, the kcat was 1.1 ± 0.0517 s⁻¹ and the kcat/Km is 16200 M⁻¹ s⁻¹.
